Results taken from patent publication US6878702B2, “Anti-inflammatory agents” (Orion Corporation, priority 2000, dated 2005).

Columns and labels:
[1] = tested on: mitochondrial KATP channel; assay: Mitochondrial ATP dependent potassium channel opening: membrane potential (ΔΨ) of isolated liver mitochondria, rhodamine 123; format: biochemical, rat; details: for ΔΨ of rat liver mitochondria in the choline chloride medium / ΔΨ of rat liver mitochondria in KCl medium: <2.58 μM concentration; for ΔΨ of rat liver mitochondria in KCl medium: respiring only on endogenous substrates, KCl medium with 400 μM ATP and 1 mg oligomycin/mg protein, FIG. 2; for effect on ΔΨ in presence of 5-hydroxydecanoate (5-HD), selective blocker of mitochondrial KATP channel: with 5-HD, data not shown
Text: In respiring mitochondria, the decrease in ΔΨ due to the KATP channel opening is compensated by an increased respiration rate. When mitochondria respires only on endogenous substrates, and phosphorylation is blocked by oligomycin, the respiration rate is sufficient to generate a high ΔΨ. However, opening of KATP channels leads to a decrease in ΔΨ, which could not be compensated by increased respiration rate. In such a model, opening of KATP channel is unmasked, and can be recorded. This model was applied to test if opening could be induced by dextrosimendan and levosimendan.
Mitochondria were isolated from rat livers by differential centrifugation in medium containing 210 mM mannitol, 70 mM sucrose, 10 mM Hepes, 1 mM EGTA and 5 mg/ml bovine serum albumin, pH 7.4. The mitochondrial protein concentration was determined by modified Biuret method. Oxygen consumption of isolated liver mitochondria was recorded at 25° C. by means of the Clark-type electrode system in the KCl medium (100 mM KCl, 2 mM KH2PO4, 10 mM HEPES, 1 mM MgCl2, pH 7.4 with TRIZMA base) or choline chloride medium (100 mM choline chloride, 2 mM NaH2PO4, 10 mM HEPES, 1 mM MgCl2, pH 7.4 with TRIZMA base). The final mitochondrial protein concentration used in experiments was 1 mg protein/ml. For studies of respiring mitochondria, 5 mM succinate in the presence of 5 μM rotenone was used as substrate.
Membrane potential (ΔΨ) of liver mitochondria was measured with rhodamine 123 as a fluorescent probe using the excitation at 503 nm and emission at 527 nm at room temperature with the Hitachi F4000 fluorometer. The difference in fluorescense between mitochondria with addition of FCCP (0.4 μM) and without it was taken as 100%, and decrease in membrane potential by the tested compounds was expressed in % of FCCP effect.

[2] = tested on: carrageenan-induced rat paw edema; assay: Carrageenan-induced paw edema in rats; format: in vivo; details: 3 h, male Wistar rats
Protocol: The acute inflammation was induced to the male Wistar rats by an injection of 0.1 ml of 1 or 2% lambda-carrageenan solution into the subplantar tissue of the right hind paw (=1 or 2 mg/paw). Three hours after the carrageenan injection the rats were killed. Both hind paws were cut off just above the heel and weighed. The test compounds (levosimendan and dextrosimendan) were administered orally 30 minutes before the induction of inflammation using dosing levels:
Control rats were included in each experiment. The difference between the weight of the right and the left hind paw was regarded as swelling. 9-10 animals were included in each group.

SMILES | ΔΨ of rat liver mitochondria in the choline chloride medium [1] | ΔΨ of rat liver mitochondria in KCl medium [1] | effect on ΔΨ in presence of 5-hydroxydecanoate (5-HD), selective blocker of mitochondrial KATP channel [1] | carrageenan-induced rat paw edema (swelling, weight difference of hind paws) ([2]; carrageenan 2 mg/paw, 10, 30 and 100 mg/kg orally 30 min before, FIG. 3b) | melting point [°C] | carrageenan-induced rat paw edema (swelling, weight difference of hind paws) ([2]; carrageenan 1 mg/paw, 0.1, 1 and 10 mg/kg orally 30 min before, FIG. 3a)
CC1CC(=O)NN=C1c1ccc(NN=C(C#N)C#N)cc1 (single isomer, unassigned; (+)) [Dextrosimendan] | did not significantly change | decreased | abolished | inhibited the carrageenan-induced rat paw edema significantly |  | 
CC1SC(=O)NN=C1c1ccc(NN=C(C#N)C#N)cc1 (single isomer, unassigned; (+)) [compound B, (+)-[[4-(3,6-dihydro-6-methyl-2-oxo-2H-1,3,4-thiadiazin-5-yl)phenyl]hydrazono]propanedinitrile] |  |  |  |  | 125 to 128 | 
C[C@@H]1CC(=O)NN=C1c1ccc(NN=C(C#N)C#N)cc1 [levosimendan, reference compound] | did not significantly change | decreased | abolished |  |  | inhibited the carrageenan-induced rat paw edema significantly
